Where a name gives a salt, the structure may show the parent alone.

Our source for the IC50 values is patent US9765056B2, “Indole and pyrrole compounds, a process for their preparation and pharmaceutical compositions containing them” (LES LABORATOIRES SERVIER, priority 2013, dated 2017).

The target of one experiment is Bcl-2 protein (histag-Bcl-2, UniProtKB P10415) (Homo sapiens (Human), UniProt P10415). Kind of experiment: Inhibition of Bcl-2 by the fluorescence polarisation technique. The experiment is classed as binding. The note with it: fluorescence polarisation test; method A, or method B where underlined (underlining not visible); read-out: IC50 (nM) Bcl-2 FP. The text has this:
Inhibition of Bcl-2 by the fluorescence polarisation technique
Background: In fluorescence polarisation assays a small probe gives low polarisation when free and higher when bound to something large.

Experiment [1] concerns RS4;11 leukaemia tumour line. Kind of experiment: In vitro cytotoxicity, Microculture Tetrazolium Assay (MTT). The experiment is classed as cell-based. Particulars: Homo sapiens; RS4;11 cells, 48 hours exposure. The method, then:
The cytotoxicity studies were carried out on the RS4;11 leukaemia tumour line.
The cells are distributed onto microplates and exposed to the test compounds for 48 hours. The cell viability is then quantified by a colorimetric assay, the Microculture Tetrazolium Assay (Cancer Res., 1987, 47, 939-942).

Sequence of Bcl-2 protein (P10415 whole entry): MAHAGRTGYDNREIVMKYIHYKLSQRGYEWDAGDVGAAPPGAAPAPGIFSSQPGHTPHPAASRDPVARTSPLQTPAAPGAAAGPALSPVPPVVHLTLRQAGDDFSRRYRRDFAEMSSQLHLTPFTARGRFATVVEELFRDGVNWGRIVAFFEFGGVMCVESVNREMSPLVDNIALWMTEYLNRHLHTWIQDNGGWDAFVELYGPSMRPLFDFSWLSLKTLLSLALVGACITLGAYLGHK

As a reminder, the IC50 is the concentration at which inhibition is half-maximal. With `Cc1cc(C(=O)N(c2ccccc2)c2ccc(O)cc2)cn1-c1cc(F)ccc1C(=O)N1Cc2ccccc2C[C@H]1CN1CCN(C)CC1` [Example 21, 1-(5-fluoro-2-{[(3S)-3-[(4-methylpiperazin-1-yl)methyl]-3,4-dihydroisoquinolin-2(1H)-yl]carbonyl}phenyl)-N-(4-hydroxyphenyl)-5-methyl-N-phenyl-1H-pyrrole-3-carboxamide], the IC50 is 24.6 nM on Bcl-2 protein and 256 nM in experiment [1].
Turning to `Cc1cc(C(=O)N(c2ccccc2)c2ccc(O)cc2)cn1-c1cc2c(cc1C(=O)N1Cc3ccccc3C[C@H]1CN1CCOCC1)OCO2` [Example 108, N-(4-Hydroxyphenyl)-5-methyl-1-(6-{[(3S)-3-(morpholin-4-ylmethyl)-3,4-dihydroisoquinolin-2(1H)-yl]carbonyl}-1,3-benzodioxol-5-yl)-N-phenyl-1H-pyrrole-3-carboxamide hydrochloride], the IC50 turned out to be 35.5 nM on Bcl-2 protein and 544 nM in experiment [1].
Taken in the same sequence, the figures for `COc1cc(-n2cc(C(=O)N(c3ccccc3)C3CCCCC3)c3ccccc32)c(C(=O)N2Cc3ccccc3C[C@H]2CN2CCN(C)CC2)cc1O` [Example 187, N-Cyclohexyl-1-{4-hydroxy-5-methoxy-2-[(3S)-3-[(4-methylpiperazin-1-yl)methyl]-1,2,3,4-tetrahydroisoquinoline-2-carbonyl}phenyl]-N-phenyl-1H-indole-3-carboxamide dihydrochloride] were 21.6 nM and 1990 nM.
Take `Cc1cc(C(=O)N(c2ccccc2)c2ccc(O)cc2)cn1-c1cc2c(cc1C(=O)N1Cc3ccccc3C[C@H]1CN1CCN(C)CC1)OCO2` [Example 24, N-(4-Hydroxyphenyl)-5-methyl-1-(6-{[(3S)-3-[(4-methylpiperazin-1-yl)methyl]-3,4-dihydroisoquinolin-2(1H)-yl]carbonyl}-1,3-benzodioxol-5-yl)-N-phenyl-1H-pyrrole-3-carboxamide]: the IC50 stood at 15.6 nM at Bcl-2 protein and 140 nM in experiment [1].
Taken in the same sequence, the figures for `CN1CCN(C[C@@H]2Cc3ccccc3CN2C(=O)c2ccc(Cl)cc2-n2cc(C(=O)N(c3ccc(O)cc3)c3ccc(F)cc3)c3ccccc32)CC1` [Example 75, 1-(5-Chloro-2-{[(3S)-3-[(4-methylpiperazin-1-yl)methyl]-3,4-dihydroisoquinolin-2(1H)-yl]carbonyl}phenyl)-N-(4-fluorophenyl)-N-(4-hydroxyphenyl)-1H-indole-3-carboxamide] were 7.1 nM and 184 nM.
For the compound `CC(C)n1ccc2cc(N(C(=O)c3cn(-c4cc5c(cc4C(=O)N4Cc6ccccc6C[C@H]4CN4CCN(C)CC4)OCO5)c4ccccc34)c3ccc(O)cc3)ccc21` [Example 100, N-(4-Hydroxyphenyl)-1-(6-{[(3S)-3-[(4-methylpiperazin-1-yl)methyl]-3,4-dihydroisoquinolin-2(1H)-yl]carbonyl}-1,3-benzodioxol-5-yl)-N-[1-(propan-2-yl)-1H-indol-5-yl]-1H-indole-3-carboxamide], the IC50 is 6.9 nM on Bcl-2 protein and 43.4 nM in experiment [1].
The matching figures for `CN1CCN(C[C@@H]2Cc3ccccc3CN2C(=O)c2cc3c(cc2-n2cc(C(=O)N(c4ccc(O)c(F)c4)c4ccc5c(ccn5C)c4)c4ccccc42)OCO3)CC1` [Example 97, N-(3-Fluoro-4-hydroxyphenyl)-N-(1-methyl-1H-indol-5-yl)-1-(6-{[(3S)-3-[(4-methylpiperazin-1-yl)methyl]-3,4-dihydroisoquinolin-2(1H)-yl]carbonyl}-1,3-benzodioxol-5-yl)-1H-indole-3-carboxamide hydrochloride]: 6.1 nM and 73.2 nM.
The matching figures for `CN1CCN(C[C@@H]2Cc3ccccc3CN2C(=O)c2ccccc2-n2cc(C(=O)N(c3ccccc3)c3ccc(O)cc3)c3ccccc32)CC1` [Example 155, N-(4-Hydroxyphenyl)-1-{2-[(3S)-3-[(4-methylpiperazin-1-yl)methyl]-1,2,3,4-tetrahydroisoquinoline-2-carbonyl}phenyl]-N-phenyl-1H-indole-3-carboxamide]: 13.2 nM and 246 nM.
Regarding `COc1ccc(C(=O)N2Cc3ccccc3C[C@H]2CN(C)C)c(-n2cc(C(=O)N(c3ccccc3)c3ccc(O)cc3)c3ccccc32)c1` [Example 175, 1-{2-[(3S)-3-[(Dimethylamino)methyl]-1,2,3,4-tetrahydroisoquinoline-2-carbonyl]-5-methoxyphenyl}-N-(4-hydroxyphenyl)-N-phenyl-1H-indole-3-carboxamide], the IC50 on Bcl-2 protein is 25.1 nM; in experiment [1], 460 nM.
Turning to `CN1CCN(C[C@@H]2Cc3ccccc3CN2C(=O)c2cc3c(cc2-n2cc(C(=O)N(c4ccc(O)cc4)c4ccc(F)c(F)c4)c4ccccc42)OCO3)CC1` [Example 56, N-(3,4-Difluorophenyl)-N-(4-hydroxyphenyl)-1-(6-{[(3S)-3-[(4-methylpiperazin-1-yl)methyl]-3,4-dihydroisoquinolin-2(1H)-yl]carbonyl}-1,3-benzodioxol-5-yl)-1H-indole-3-carboxamide], the IC50 is 5 nM on Bcl-2 protein and 135 nM in experiment [1].
Take `CN1CCN(C[C@@H]2Cc3ccccc3CN2C(=O)c2ccc(Cl)cc2-n2cc(C(=O)N(c3ccccc3)c3ccccc3)c3ccccc32)CC1` [Example 178, 1-{5-Chloro-2-[(3S)-3-[(4-methylpiperazin-1-yl)methyl]-1,2,3,4-tetrahydroisoquinoline-2-carbonyl]phenyl}-N,N-diphenyl-1H-indole-3-carboxamide dihydrochloride]: the half-inhibitory concentration (IC50) is 17.5 nM on Bcl-2 protein and 812 nM in experiment [1].
Take `COc1cc(-n2cc(C(=O)N(c3ccccc3)c3ccc(O)cc3)c3ccccc32)c(C(=O)N2Cc3ccccc3C[C@H]2CN)cc1O` [Example 145, 1-{2-[(3S)-3-(Aminomethyl)-1,2,3,4-tetrahydroisoquinoline-2-carbonyl]-4-hydroxy-5-methoxyphenyl}-N-(4-hydroxyphenyl)-N-phenyl-1H-indole-3-carboxamide]: the concentration for half-maximal inhibition (IC50) was determined as 12.2 nM at Bcl-2 protein and 1180 nM in experiment [1].
On to `COc1ccc(C(=O)N2Cc3ccccc3C[C@H]2CN)c(-n2nc(C(=O)N(c3ccccc3)c3ccccc3)c3ccccc32)c1` [Example 150, 1-{2-[(3S)-3-(Aminomethyl)-1,2,3,4-tetrahydroisoquinoline-2-carbonyl]-5-methoxyphenyl}-N,N-diphenyl-1H-indazole-3-carboxamide], for which the concentration for half-maximal inhibition (IC50) at Bcl-2 protein amounted to 51 nM; in experiment [1], 1320 nM.
The matching figures for `CN1CCN(C[C@@H]2Cc3ccccc3CN2C(=O)c2cc3c(cc2-n2cc(C(=O)N(c4ccc(O)cc4)c4ccc5sccc5c4)c4ccccc42)OCO3)CC1` [Example 43, N-(1-Benzothiophen-5-yl)-N-(4-hydroxyphenyl)-1-(6-{[(3S)-3-[(4-methylpiperazin-1-yl)methyl]-3,4-dihydroisoquinolin-2(1H)-yl]carbonyl}-1,3-benzodioxol-5-yl)-1H-indole-3-carboxamide]: 7.2 nM and 101 nM.
The matching figures for `Cc1cc(C(=O)N(c2ccc(O)cc2)c2ccc(F)cc2)cn1-c1cc(Br)ccc1C(=O)N1Cc2ccccc2C[C@H]1CN1CCN(C)CC1` [Example 50, 1-(5-Bromo-2-{[(3S)-3-[(4-methylpiperazin-1-yl)methyl]-3,4-dihydroisoquinolin-2(1H)-yl]carbonyl}phenyl)-N-(4-fluorophenyl)-N-(4-hydroxyphenyl)-5-methyl-1H-pyrrole-3-carboxamide]: 7.4 nM and 301 nM.
